Assays:
Format in all cases: cell-based, mouse
[1] = system: NIH3T3 cells overexpressing Ki-ras; assay: MTT cell viability, Ki-ras overexpressing cells vs parental line; conditions: Ki-ras high-expressing cells / parental cell line, 3 to 4 days
Protocol: (§1) With regard to the function-known genes, the genes shown in the left column of Table 2 were used. With regard to the drugs, those shown in Table 1 were dissolved in DMSO to an extent of 100-fold of the maximum concentration for the search of the drugs and used. With regard to the cells, incubated NIH3T3 or ras-NIH3T3 cells were used.
(§2) Full-length cDNA of each function-known genes was incorporated into an expression vector (pRc-CMV, etc.) and transfected into NIH3T3 cells by a common method. Transformed cells were isolated using the resistance to G-418 as an index and the expression of the transfected gene in each cell was investigated by Western blotting method to select a highly expressing line.
(§3) Cell viabilities were measured according to the following procedures.
(§4) 1) From the 2nd to the 11th rows of a 96-well plate were filled with DMEM (50 μl). The 12th row was filled with 100 μl of DMEM.
(§5) 2) The 1st row was filled with 98 μl of DMEM.
(§6) 3) Drugs (2 μl each) were added into the 1st row.
(§7) 4) Continuous double-dilution was conducted from the 1st to the 9th rows. Fifty μl were taken out from the 9th row and discarded. The plate was preserved in a CO2 incubator.
(§8) 5) Cells (each high-expressing cells and the parental cell line) were detached from the medium using a trypsin solution, suspended in 10% CS-DMEM and transferred to a test tube and cell numbers (cell/ml) were counted.
(§9) 6) The cells were diluted to a concentration of 1×10^5 cells/ml, and 50 μl of the cell suspension were added to the 1st to the 11th rows of the plate followed by gently stirring.
(§10) 7) The plate was transferred to the CO2 incubator and incubated for 3 to 4 days.
(§11) 8) MTT (5 mg/ml in PBS) (10 μl) was added to the 1st to the 12th rows of the plate and incubated in the CO2 incubator at 37° C. for 4 hours.
(§12) 9) A reaction stop solution (0.04N HCl in isopropanol) (150 μl) was added followed by mixing well and being allowed to stand at room temperature for about 2 hours.
(§13) 10) Coloration of formazan which was a metabolite of the MTT dye was measured using a microplate reader. The measurement wavelength was 574 nm and the reference wavelength was 655 nm. The 10th and the 11th rows of the plate were 100% controls and the 12th row was a 0% control.
(§14) As an index for the sensitivity of highly gene-expressing cells and the parental cell line to various drugs, each of the IC40 values thereof was specified and ratios of the IC40 values were calculated. FIG. 2 and FIG. 3 are the examples where ratios of IC40 values were calculated from a curve showing the dependency on the concentration of the chemical versus the viability. After that, logarithmic values of ratios of IC40 values were calculated from each gene.

[2] = system: NIH3T3 cells overexpressing N-ras; assay: MTT cell viability, N-ras overexpressing cells vs parental line; conditions: N-ras high-expressing cells / parental cell line, 3 to 4 days
Protocol: as §1, §2, §3, §4, §5, §6, §7, §8, §9, §10, §11, §12, §13, §14

[3] = system: NIH3T3 cells overexpressing erbB2; assay: MTT cell viability, erbB2 overexpressing cells vs parental line; conditions: erbB2 high-expressing cells / parental cell line, 3 to 4 days
Protocol: as §1, §2, §3, §4, §5, §6, §7, §8, §9, §10, §11, §12, §13, §14

[4] = system: NIH3T3 cells overexpressing p16/INK4A; assay: MTT cell viability, p16/INK4A overexpressing cells vs parental line; conditions: p16/INK4A high-expressing cells / parental cell line, 3 to 4 days
Protocol: as §1, §2, §3, §4, §5, §6, §7, §8, §9, §10, §11, §12, §13, §14

[5] = system: NIH3T3 cells overexpressing Bax; assay: MTT cell viability, Bax overexpressing cells vs parental line; conditions: 3 to 4 days
Protocol: as §1, §2, §3, §4, §5, §6, §7, §8, §9, §10, §11, §12, §13
(§15) As an index for the sensitivity of highly gene-expressing cells and the parental cell line to various drugs, each of the IC40 values thereof was specified and ratios of the IC40 values were calculated. […] After that, logarithmic values of ratios of IC40 values were calculated from each gene.

[6] = system: NIH3T3 cells overexpressing cAMP-PK-CS; assay: MTT cell viability, cAMP-PK-CS overexpressing cells vs parental line; conditions: cAMP-PK-CS high-expressing cells / parental cell line, 3 to 4 days
Protocol: as §1, §2, §3, §4, §5, §6, §7, §8, §9, §10, §11, §12, §13, §15

[7] = system: NIH3T3 cells overexpressing calpastatin; assay: MTT cell viability, calpastatin overexpressing cells vs parental line; conditions: calpastatin high-expressing cells / parental cell line, 3 to 4 days
Protocol: as §1, §2, §3, §4, §5, §6, §7, §8, §9, §10, §11, §12, §13, §14

[8] = system: NIH3T3 cells overexpressing Regucalcin; assay: MTT cell viability, Regucalcin overexpressing cells vs parental line; conditions: Regucalcin high-expressing cells / parental cell line, 3 to 4 days
Protocol: as §1, §2, §3, §4, §5, §6, §7, §8, §9, §10, §11, §12, §13, §14

[9] = system: NIH3T3 cells overexpressing cystatin E; assay: MTT cell viability, cystatin E overexpressing cells vs parental line; conditions: cystatin E high-expressing cells / parental cell line, 3 to 4 days
Protocol: as §1, §2, §3, §4, §5, §6, §7, §8, §9, §10, §11, §12, §13, §14

[10] = system: NIH3T3 cells overexpressing caspase-1; assay: MTT cell viability, caspase-1 overexpressing cells vs parental line; conditions: caspase-1 high-expressing cells / parental cell line, 3 to 4 days
Protocol: as §1, §2, §3, §4, §5, §6, §7, §8, §9, §10, §11, §12, §13, §15

[11] = system: NIH3T3 cells overexpressing caspase-3; assay: MTT cell viability, caspase-3 overexpressing cells vs parental line; conditions: caspase-3 high-expressing cells / parental cell line, 3 to 4 days
Protocol: as §1, §2, §3, §4, §5, §6, §7, §8, §9, §10, §11, §12, §13, §15

[12] = system: NIH3T3 cells overexpressing caspase-2; assay: MTT cell viability, caspase-2 overexpressing cells vs parental line; conditions: caspase-2 high-expressing cells / parental cell line, 3 to 4 days
Protocol: as §1, §2, §3, §4, §5, §6, §7, §8, §9, §10, §11, §12, §13, §14

[13] = system: NIH3T3 cells overexpressing RhoA; assay: MTT cell viability, RhoA overexpressing cells vs parental line; conditions: RhoA high-expressing cells / parental cell line, 3 to 4 days
Protocol: as §1, §2, §3, §4, §5, §6, §7, §8, §9, §10, §11, §12, §13, §14

[14] = system: NIH3T3 cells overexpressing STAT1; assay: MTT cell viability, STAT1 overexpressing cells vs parental line; conditions: STAT1 high-expressing cells / parental cell line, 3 to 4 days
Protocol: as §1, §2, §3, §4, §5, §6, §7, §8, §9, §10, §11, §12, §13, §15

[15] = system: NIH3T3 cells overexpressing CBP8; assay: MTT cell viability, CBP8 overexpressing cells vs parental line; conditions: CBP8 high-expressing cells / parental cell line, 3 to 4 days
Protocol: as §1, §2, §3, §4, §5, §6, §7, §8, §9, §10, §11, §12, §13, §14

[16] = system: NIH3T3 cells, TPA (PKC downreg); assay: MTT cell viability, TPA (PKC downreg) cells vs parental line; conditions: 3 to 4 days
Protocol: as §1, §2, §3, §4, §5, §6, §7, §8, §9, §10, §11, §12, §13, §14

[17] = system: NIH3T3 cells overexpressing CaMKIIa; assay: MTT cell viability, CaMKIIa overexpressing cells vs parental line; conditions: CaMKIIa high-expressing cells / parental cell line, 3 to 4 days
Protocol: as §1, §2, §3, §4, §5, §6, §7, §8, §9, §10, §11, §12, §13, §15

[18] = system: NIH3T3 cells overexpressing HNF3b; assay: MTT cell viability, HNF3b overexpressing cells vs parental line; conditions: HNF3b high-expressing cells / parental cell line, 3 to 4 days
Protocol: as §1, §2, §3, §4, §5, §6, §7, §8, §9, §10, §11, §12, §13, §15

[19] = system: NIH3T3 cells overexpressing HNF4; assay: MTT cell viability, HNF4 overexpressing cells vs parental line; conditions: HNF4 high-expressing cells / parental cell line, 3 to 4 days
Protocol: as §1, §2, §3, §4, §5, §6, §7, §8, §9, §10, §11, §12, §13, §15

[20] = system: NIH3T3 cells overexpressing p33/ING1; assay: MTT cell viability, p33/ING1 overexpressing cells vs parental line; conditions: p33/ING1 high-expressing cells / parental cell line, 3 to 4 days
Protocol: as §1, §2, §3, §4, §5, §6, §7, §8, §9, §10, §11, §12, §13, §14

[21] = Bax (first of two Bax lines) high-expressing cells / parental cell line
[22] = Bax (second of two Bax lines) high-expressing cells / parental cell line

C/C=C(/C)C(=O)O[C@H]1C(C)=C2[C@H]([C@@H]1OC(=O)CCCCCCC)[C@@](C)(OC(C)=O)C[C@H](OC(=O)CCC)[C@@]1(O)[C@H]2OC(=O)[C@@]1(C)O [Thapsigargin, thapsigargin]
logarithmic value of ratio of IC40 values [1]: −0.05
logarithmic value of ratio of IC40 values [2]: 0.08
logarithmic value of ratio of IC40 values [3]: 0.11
logarithmic value of ratio of IC40 values [4]: −0.64
logarithmic value of ratio of IC40 values [5, 21]: −0.21
logarithmic value of ratio of IC40 values [5, 22]: 0.20
logarithmic value of ratio of IC40 values [6]: 0.05
logarithmic value of ratio of IC40 values [7]: 0.046
logarithmic value of ratio of IC40 values [8]: 0.20
logarithmic value of ratio of IC40 values [9]: 0.00
logarithmic value of ratio of IC40 values [10]: −0.30
logarithmic value of ratio of IC40 values [11]: −0.17
logarithmic value of ratio of IC40 values [12]: −0.07
logarithmic value of ratio of IC40 values [13]: 0.26
logarithmic value of ratio of IC40 values [14]: 0.30
logarithmic value of ratio of IC40 values [15]: 0.12
logarithmic value of ratio of IC40 values [16]: −0.23
logarithmic value of ratio of IC40 values [17]: 0.09
logarithmic value of ratio of IC40 values [18]: 0.24
logarithmic value of ratio of IC40 values [19]: 0.00
logarithmic value of ratio of IC40 values [20]: 0.49

C=C1[C@@H](O)[C@@H]2O[C@]3(CC[C@H](/C=C/[C@@H](C)[C@@H]4CC(C)=C[C@@]5(O[C@H](C[C@@](C)(O)C(=O)O)CC[C@H]5O)O4)O3)CC[C@H]2O[C@@H]1[C@@H](O)C[C@H](C)[C@H]1O[C@@]2(CCCCO2)CC[C@H]1C [OA, okadaic acid]
logarithmic value of ratio of IC40 values [1]: 0.04
logarithmic value of ratio of IC40 values [2]: 0.00
logarithmic value of ratio of IC40 values [3]: −0.19
logarithmic value of ratio of IC40 values [4]: 0.06
logarithmic value of ratio of IC40 values [5, 21]: 0.00
logarithmic value of ratio of IC40 values [5, 22]: 0.00
logarithmic value of ratio of IC40 values [6]: 0.08
logarithmic value of ratio of IC40 values [7]: −0.04
logarithmic value of ratio of IC40 values [8]: −0.10
logarithmic value of ratio of IC40 values [9]: −0.52
logarithmic value of ratio of IC40 values [10]: 0.00
logarithmic value of ratio of IC40 values [11]: 0.00
logarithmic value of ratio of IC40 values [12]: 0.06
logarithmic value of ratio of IC40 values [13]: 0.00
logarithmic value of ratio of IC40 values [14]: 0.14
logarithmic value of ratio of IC40 values [15]: 0.12
logarithmic value of ratio of IC40 values [16]: 0.12
logarithmic value of ratio of IC40 values [17]: 0.00
logarithmic value of ratio of IC40 values [18]: 0.08
logarithmic value of ratio of IC40 values [19]: 0.08
logarithmic value of ratio of IC40 values [20]: 0.11

From patent US20040086901A1, “Database for analyzing gene function and method of analyzing gene function by dspa” (priority 2000, published 2004)
